Test results taken from patent publication US10370343B2, “[6,6] Fused bicyclic HDAC8 inhibitors” (FORMA Therapeutics, Inc., priority 2015, dated 2019).

Each compound was assayed against T1, Recombinant N-terminal GST tag full-length human HDAC8 (Homo sapiens, UniProt Q9BY41) (assay: HDAC8 probe binding assay, time resolved fluorescence (TRF) format). Settings: compounds grouped by IC50 range (Table 2).
T1 construct: Recombinant N-terminal GST tag full-length human HDAC8; purchased SignalChem H90-30G-1000; host or cells: baculovirus in Sf9 insect cells
T1 sequence (Q9BY41 1-377): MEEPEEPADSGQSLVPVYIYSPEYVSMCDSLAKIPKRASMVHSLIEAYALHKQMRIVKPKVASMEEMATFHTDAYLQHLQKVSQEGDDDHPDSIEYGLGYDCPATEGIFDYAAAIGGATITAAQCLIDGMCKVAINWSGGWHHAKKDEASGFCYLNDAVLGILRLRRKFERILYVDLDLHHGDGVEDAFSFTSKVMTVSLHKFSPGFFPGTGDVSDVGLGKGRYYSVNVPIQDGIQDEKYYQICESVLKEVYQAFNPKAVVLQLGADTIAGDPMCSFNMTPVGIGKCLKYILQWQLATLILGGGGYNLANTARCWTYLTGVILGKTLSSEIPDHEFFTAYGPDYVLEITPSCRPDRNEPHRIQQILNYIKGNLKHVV
Method: The HDAC8 probe binding assay was performed using a time resolved fluorescence (TRF) assay format. Recombinant N-terminal GST tag full-length human HDAC8 was expressed and purified from baculovirus in Sf9 insect cells (SignalChem, #[…]-1000). […] Plates were incubated for 16 hours at room temperature before time resolved fluorescence was read on the Envision (Excitation at 340 nm, and Emission at 485 nm and 535 nm, Perkin Elmer). Data from HDAC8 Assays were reported as percent inhibition (inh) compared with control wells based on the following equation: % inh=1-((FLU-AveLow)/(AveHigh-AveLow)) where FLU=measured time resolved fluorescence. AveLow=average time resolved fluorescence of no enzyme control (n=32). AveHigh=average time resolved fluorescence of DMSO control (n=32). IC50 values were determined by curve fitting of the standard 4 parameter logistic fitting algorithm included in the Activity Base software package: IDBS XE Designer Model205. Data is fitted using the Levenburg Marquardt algorithm. Ranges of IC50 values for compounds of the invention are disclosed in Table 2: Table 2. provides the compounds arranged according to […] determined in a time resolved fluorescence (TRF) assay. The compounds are separated into four groups: […]

SMILES | IC50
O=C(NO)c1ccc2c(c1)N(Cc1cnc3c(c1)OCCO3)C(=O)CO2 [Compound I-173, 4-((2,3-dihydro-[1,4]dioxino[2,3-b]pyridin-7-yl)methyl)-N-hydroxy-3-oxo-3,4-dihydro-2H-benzo[b][1,4]oxazine-6-carboxamide] | 25 to 100 nM
CC1(C)Oc2ccc(C(=O)NO)cc2N(Cc2ccc(C(F)(F)F)cc2)C1=O [Compound I-305, N-hydroxy-2,2-dimethyl-3-oxo-4-(4-(trifluoromethyl)benzyl)-3,4-dihydro-2H-benzo[b][1,4]oxazine-6-carboxamide] | 25 to 100 nM
Cc1ccc2nc(CN3C(=O)COc4ccc(C(=O)NO)cc43)cn2c1 [Compound I-365, N-hydroxy-4-((6-methylimidazo[1,2-a]pyridin-2-yl)methyl)-3-oxo-3,4-dihydro-2H-benzo[b][1,4]oxazine-6-carboxamide] | 25 to 100 nM
O=C(NO)c1ccc2c(c1)N(Cc1nc3cc(C(F)(F)F)ccc3o1)C(=O)CO2 [Compound I-234, N-hydroxy-3-oxo-4-((5-(trifluoromethyl)benzo[d]oxazol-2-yl)methyl)-3,4-dihydro-2H-benzo[b][1,4]oxazine-6-carboxamide] | ≤ 25 nM
O=C(NO)c1ccc2c(c1)N(Cc1n[nH]c3ccccc13)C(=O)CO2 [Compound I-203, 4-((1H-indazol-3-yl)methyl)-N-hydroxy-3-oxo-3,4-dihydro-2H-benzo[b][1,4]oxazine-6-carboxamide] | 25 to 100 nM
O=C(NO)c1ccc2c(c1)N(Cc1cc(Cl)cc(C(F)(F)F)c1)C(=O)CO2 [Compound I-349, 4-(3-chloro-5-(trifluoromethyl)benzyl)-N-hydroxy-3-oxo-3,4-dihydro-2H-benzo[b][1,4]oxazine-6-carboxamide] | 25 to 100 nM
O=C(NO)c1ccc2c(c1)N(Cc1ncn(-c3ccccc3)n1)C(=O)CO2 [Compound I-193, N-hydroxy-3-oxo-4-((1-phenyl-1H-1,2,4-triazol-3-yl)methyl)-3,4-dihydro-2H-benzo[b][1,4]oxazine-6-carboxamide] | 25 to 100 nM
COc1ccc(CN2C(=O)COc3c(F)cc(C(=O)NO)cc32)cc1 [Compound I-163, 8-fluoro-N-hydroxy-4-(4-methoxybenzyl)-3-oxo-3,4-dihydro-2H-benzo[b][1,4]oxazine-6-carboxamide] | 25 to 100 nM
O=C(NO)c1cc(F)c2c(c1)N(Cc1ccc(-n3cccn3)cc1)C(=O)CO2 [Compound I-164, 4-(4-(1H-pyrazol-1-yl)benzyl)-8-fluoro-N-hydroxy-3-oxo-3,4-dihydro-2H-benzo[b][1,4]oxazine-6-carboxamide] | 25 to 100 nM
Cc1ccc2nc(CN3C(=O)COc4ccc(C(=O)NO)cc43)sc2n1 [Compound I-210, N-hydroxy-4-((5-methylthiazolo[5,4-b]pyridin-2-yl)methyl)-3-oxo-3,4-dihydro-2H-benzo[b][1,4]oxazine-6-carboxamide] | ≤ 25 nM
CC1(C)Oc2ccc(C(=O)NO)cc2N(Cc2cccc(Oc3ccc(Cl)cc3)c2)C1=O [Compound I-227, 4-(3-(4-chlorophenoxy)benzyl)-N-hydroxy-2,2-dimethyl-3-oxo-3,4-dihydro-2H-benzo[b][1,4]oxazine-6-carboxamide] | ≤ 25 nM
N#Cc1c(CN2C(=O)COc3ccc(C(=O)NO)cc32)cn2ccccc12 [Compound I-201, 4-((1-cyanoindolizin-2-yl)methyl)-N-hydroxy-3-oxo-3,4-dihydro-2H-benzo[b][1,4]oxazine-6-carboxamide] | ≤ 25 nM
CC1(C)Oc2ccc(C(=O)NO)cc2N(Cc2cccc(C(F)(F)F)c2)C1=O [Compound I-300, N-hydroxy-2,2-dimethyl-3-oxo-4-(3-(trifluoromethyl)benzyl)-3,4-dihydro-2H-benzo[b][1,4]oxazine-6-carboxamide] | 25 to 100 nM
Cc1cnc2sc(CN3C(=O)COc4ccc(C(=O)NO)cc43)nc2c1 [Compound I-207, N-hydroxy-4-((6-methylthiazolo[5,4-b]pyridin-2-yl)methyl)-3-oxo-3,4-dihydro-2H-benzo[b][1,4]oxazine-6-carboxamide] | ≤ 25 nM
O=C(NO)c1ccc2c(c1)N(Cc1ccc(OC3CCC3)cc1)C(=O)CO2 [Compound I-331, 4-(4-cyclobutoxybenzyl)-N-hydroxy-3-oxo-3,4-dihydro-2H-benzo[b][1,4]oxazine-6-carboxamide] | ≤ 25 nM
O=C(NO)c1ccc2c(c1)N(Cc1cccc(Oc3ccc(Cl)cc3)c1)C(=O)CO2 [Compound I-226, 4-(3-(4-chlorophenoxy)benzyl)-N-hydroxy-3-oxo-3,4-dihydro-2H-benzo[b][1,4]oxazine-6-carboxamide] | ≤ 25 nM

Now from value to compound:

IC50 | SMILES
25 to 100 nM | CC(C)NC(=O)c1ccc(CN2C(=O)COc3ccc(C(=O)NO)cc32)cc1 [Compound I-369, N-hydroxy-4-(4-(isopropylcarbamoyl)benzyl)-3-oxo-3,4-dihydro-2H-benzo[b][1,4]oxazine-6-carboxamide]
≤ 25 nM | COc1ccc(CN2C(=O)COc3ccc(C(=O)NO)cc32)cn1 [Compound I-332, N-hydroxy-4-((6-methoxypyridin-3-yl)methyl)-3-oxo-3,4-dihydro-2H-benzo[b][1,4]oxazine-6-carboxamide]
25 to 100 nM | COc1cc(CN2C(=O)COc3ccc(C(=O)NO)cc32)ccc1F [Compound I-353, 4-(4-fluoro-3-methoxybenzyl)-N-hydroxy-3-oxo-3,4-dihydro-2H-benzo[b][1,4]oxazine-6-carboxamide]
≤ 25 nM | COc1ccc(Cl)c(CN2C(=O)COc3ccc(C(=O)NO)cc32)c1 [Compound I-347, 4-(2-chloro-5-methoxybenzyl)-N-hydroxy-3-oxo-3,4-dihydro-2H-benzo[b][1,4]oxazine-6-carboxamide]
≤ 25 nM | O=C(NO)c1ccc2c(c1)N(Cc1ccc3cnccc3c1)C(=O)CO2 [Compound I-336, N-hydroxy-4-(isoquinolin-6-ylmethyl)-3-oxo-3,4-dihydro-2H-benzo[b][1,4]oxazine-6-carboxamide]
≤ 25 nM | O=C(NO)c1ccc2c(c1)N(Cc1ccc(N3CCCC3)cc1)C(=O)CO2 [Compound I-176, N-hydroxy-3-oxo-4-(4-(pyrrolidin-1-yl)benzyl)-3,4-dihydro-2H-benzo[b][1,4]oxazine-6-carboxamide]
≤ 25 nM | O=C(NO)c1ccc2c(c1)N(Cc1ccc3ncccc3c1)C(=O)CO2 [Compound I-231, N-hydroxy-3-oxo-4-(quinolin-6-ylmethyl)-3,4-dihydro-2H-benzo[b][1,4]oxazine-6-carboxamide]
≤ 25 nM | O=C(NO)c1ccc2c(c1)N(Cc1ccn3nccc3c1)C(=O)CO2 [Compound I-339, N-hydroxy-3-oxo-4-(pyrazolo[1,5-a]pyridin-5-ylmethyl)-3,4-dihydro-2H-benzo[b][1,4]oxazine-6-carboxamide]
≤ 25 nM | O=C(NO)c1ccc2c(c1)N(Cc1cc(Cl)ccc1F)C(=O)CO2 [Compound I-348, 4-(5-chloro-2-fluorobenzyl)-N-hydroxy-3-oxo-3,4-dihydro-2H-benzo[b][1,4]oxazine-6-carboxamide]
25 to 100 nM | O=C(NO)c1ccc2c(c1)N(Cc1cccc3ccccc13)C(=O)CO2 [Compound I-230, N-hydroxy-4-(naphthalen-1-ylmethyl)-3-oxo-3,4-dihydro-2H-benzo[b][1,4]oxazine-6-carboxamide]
25 to 100 nM | O=C(NO)c1ccc2c(c1)N(Cc1ccc(C(=O)N3CCCCC3)cc1)C(=O)CO2 [Compound I-150, N-hydroxy-3-oxo-4-(4-(piperidine-1-carbonyl)benzyl)-3,4-dihydro-2H-benzo[b][1,4]oxazine-6-carboxamide]
≤ 25 nM | CN(C)c1ccc(CN2C(=O)COc3ccc(C(=O)NO)cc32)cc1 [Compound I-361, 4-(4-(dimethylamino)benzyl)-N-hydroxy-3-oxo-3,4-dihydro-2H-benzo[b][1,4]oxazine-6-carboxamide]
≤ 25 nM | N#Cc1ccc(Cl)c(CN2C(=O)COc3ccc(C(=O)NO)cc32)c1 [Compound I-373, 4-(2-chloro-5-cyanobenzyl)-N-hydroxy-3-oxo-3,4-dihydro-2H-benzo[b][1,4]oxazine-6-carboxamide]
≤ 25 nM | O=C(NO)c1ccc2c(c1)N(Cc1cnc3ccccc3c1)C(=O)CO2 [Compound I-333, N-hydroxy-3-oxo-4-(quinoIin-3-ylmethyl)-3,4-dihydro-2H-benzo[b][1,4]oxazine-6-carboxamide]
25 to 100 nM | O=C(NO)c1ccc2c(c1)N(Cc1ccc(Oc3ccccc3)cc1)C(=O)CO2 [Compound I-229, N-hydroxy-3-oxo-4-(4-phenoxybenzyl)-3,4-dihydro-2H-benzo[b][1,4]oxazine-6-carboxamide]
≤ 25 nM | COc1cc(CN2C(=O)COc3ccc(C(=O)NO)cc32)ccc1Cl [Compound I-350, 4-(4-chloro-3-methoxybenzyl)-N-hydroxy-3-oxo-3,4-dihydro-2H-benzo[b][1,4]oxazine-6-carboxamide]
